Experimental data taken from patent US8652999B1, “Herbicidal compositions comprising 4-amino-3-chloro-5-fluoro-6-(4-chloro-2-fluoro-3-methoxyphenyl)pyridine-2-carboxylic acid or a derivative thereof and a sulfonylaminocarbonyltriazolinone” (Dow AgroSciences, LLC., priority 2012, dated 2014).

Assays:
Assay type in all cases: in vivo
Details in all cases: foliar, 20-22 days
Veronica persica (VERPE) = assay: Postemergence herbicidal activity, greenhouse, VERPE
Protocol: (§1) Evaluation of Postemergence Herbicidal Activity of Mixtures in Cereal Crops
(§2) Seeds of the desired test plant species were planted in Sun Gro MetroMix® 306 planting mixture, which typically has a pH of 6.0 to 6.8 and an organic matter content of about 30 percent, in plastic pots with a surface area of 103.2 square centimeters (cm^2). […] The plants were grown for 7-36 days in a greenhouse with an approximate 14 hour photoperiod which was maintained at about 18° C. during the day and 17° C. during the night. Nutrients and water were added on a regular basis and supplemental lighting was provided with overhead metal halide 1000-Watt lamps as necessary. The plants were employed for testing when they reached the second or third true leaf stage.
(§3) Treatments consisted of the benzyl ester of the compound of formula (I) (Compound A as listed in Tables 1-8) and a second cereal herbicide alone and in combination. […] The concentrated stock solutions were diluted to 1.5 mg ai/mL with the addition of 2 volumes of an aqueous mixture containing acetone, water, isopropyl alcohol, DMSO, Agri-dex crop oil concentrate, and Triton® X-77 surfactant in a 64.7:26.0:6.7:2.0:0.7:0.01 v/v ratio. A dilution solution was prepared by mixing 1 volume of 97:3 v/v acetone/DMSO and 2 volumes of an aqueous mixture containing acetone, water, isopropyl alcohol, DMSO, Agri-dex crop oil concentrate, and Triton® X-77 surfactant in a 64.7:26.0:6.7:2.0:0.7:0.01 v/v ratio. Compound requirements are based upon a 12 mL application volume at a rate of 187 liters per hectare (L/ha). […] Formulated compounds were applied to the plant material with an overhead Mandel track sprayer equipped with 8002E nozzles calibrated to deliver 187 L/ha over an application area of 0.503 square meters (m^2) at a spray height of 18 inches (43 cm) above average plant canopy. Control plants were sprayed in the same manner with the solvent blank.
(§4) The treated plants and control plants were placed in a greenhouse as described above and watered by sub-irrigation to prevent wash-off of the test compounds. After 20-22 days, the condition of the test plants as compared with that of the control plants was determined visually and scored on a scale of 0 to 100 percent where 0 corresponds to no injury and 100 corresponds to complete kill.
(§5) Colby's equation was used to determine the herbicidal effects expected from the mixtures (Colby, S. R. 1967. Calculation of the synergistic and antagonistic response of herbicide combinations. Weeds 15:20-22.). Specifically, the following equation was used to calculate the expected activity of mixtures containing two active ingredients, A and B: Expected=A+B−(A×B/100) • A=observed efficacy of active ingredient A at the same concentration as used in the mixture. • B=observed efficacy of active ingredient B at the same concentration as used in the mixture.

Stellaria media (STEME) = assay: Postemergence herbicidal activity, greenhouse, STEME
Protocol: as §1, §2, §3, §4, §5

[1] = tested on: Matricaria chamomila (MATCH); assay: Postemergence herbicidal activity, greenhouse, MATCH
Protocol: as §1, §2, §3, §4, §5

Cirsium arvense (CIRAR) = assay: Postemergence herbicidal activity, greenhouse, CIRAR
Protocol: as §1, §2, §3, §4, §5

[2] = tested on: Alopecurus myosuroides (ALOMY); assay: Postemergence herbicidal activity, greenhouse, ALOMY
Protocol: as §1, §2, §3, §4, §5

[3] = tested on: Apera spica-venti (APESV); assay: Postemergence herbicidal activity, greenhouse, APESV
Protocol: as §1, §2, §3, §4, §5

[4] = tested on: Lolium multiflorum subsp. gaudini (LOLMG); assay: Postemergence herbicidal activity, greenhouse, LOLMG
Protocol: as §1, §2, §3, §4, §5

[5] = tested on: Triticum aestivum (TRZAW); assay: Postemergence herbicidal activity, greenhouse, TRZAW
Protocol: as §1, §2, §3, §4, §5

Papaver rhoeas (PAPRH) = assay: Postemergence herbicidal activity, greenhouse, PAPRH
Protocol: as §1, §2, §3, §4, §5

Salsola tragus (SASKR) = assay: Postemergence herbicidal activity, greenhouse, SASKR
Protocol: as §1, §2, §3, §4, §5

Viola tricolor (VIOTR) = assay: Postemergence herbicidal activity, greenhouse, VIOTR
Protocol: as §1, §2, §3, §4, §5

Lamium purpureum (LAMPU) = assay: Postemergence herbicidal activity, greenhouse, LAMPU
Protocol: as §1, §2, §3, §4
(§6) Colby's equation was used to determine the herbicidal effects expected from the mixtures (Colby, S. R. 1967. Calculation of the synergistic and antagonistic response of herbicide combinations. Weeds 15:20-22.). […]

Setaria viridis (SETVI) = assay: Postemergence herbicidal activity, greenhouse, SETVI
Protocol: as §1, §2, §3, §4, §6

Kochia scoparia (KCHSC) = assay: Postemergence herbicidal activity, greenhouse, KCHSC
Protocol: as §1, §2, §3, §4, §5

[6] = tested on: Triticum aestivum (TRZAS); assay: Postemergence herbicidal activity, greenhouse, TRZAS
Protocol: as §1, §2
(§7) Treatments consisted of the benzyl ester of the compound of formula (I) (Compound A as listed in Tables 1-8) and a second cereal herbicide alone and in combination. […]
as §4, with “kill. […]” for “kill.”

Hordeum vulgare (HORVS) = assay: Postemergence herbicidal activity, greenhouse, HORVS
Protocol: as §1, §2, §7
as §4, with “kill. […]” for “kill.”

Galium aparine (GALAP) = assay: Postemergence herbicidal activity, greenhouse, GALAP
Protocol: as §1, §2, §7
as §4, with “kill. […]” for “kill.”

[7] = tested on: Chenopodium album (CHEAL); assay: Postemergence herbicidal activity, greenhouse, CHEAL
Protocol: as §1, §2, §7
as §4, with “kill. […]” for “kill.”

COc1c(Cl)ccc(-c2nc(C(=O)OCc3ccccc3)c(Cl)c(N)c2F)c1F [Compound A, benzyl ester of 4-amino-3-chloro-5-fluoro-6-(4-chloro-2-fluoro-3-methoxyphenyl)pyridine-2-carboxylic acid]
VERPE Obs (Veronica persica (VERPE); Compound A 5 g ai/ha): 13% | VERPE Obs (Veronica persica (VERPE); Compound A 8.75 g/ha): 50% | VERPE Obs (Veronica persica (VERPE); Compound A 10 g ai/ha): 25% | STEME Obs (Stellaria media (STEME); Compound A 5 g ai/ha): 50% | STEME Obs (Stellaria media (STEME); Compound A 8.75 g/ha): 68% | STEME Obs (Stellaria media (STEME); Compound A 10 g ai/ha): 63% | MATCH Obs ([1]; Compound A 2.5 g ha): 0% | MATCH Obs ([1]; Compound A 5 g ai/ha): 20% | MATCH Obs ([1]; Compound A 5 g ha): 10% | MATCH Obs ([1]; Compound A 8.75 g/ha): 20% | MATCH Obs ([1]; Compound A 10 g ai/ha): 40% | CIRAR Obs (Cirsium arvense (CIRAR); Compound A 2.5 g ha): 10% | CIRAR Obs (Cirsium arvense (CIRAR); Compound A 5 g ha): 20% | CIRAR Obs (Cirsium arvense (CIRAR); Compound A 8.75 g/ha): 40% | ALOMY Obs ([2]; Compound A 5 g ha): 0% | ALOMY Obs ([2]; Compound A 5 g/ha): 0% | ALOMY Obs ([2]; Compound A 10 g ha): 0% | ALOMY Obs ([2]; Compound A 10 g/ha): 0% | APESV Obs ([3]; Compound A 5 g ha): 0% | APESV Obs ([3]; Compound A 5 g/ha): 0% | APESV Obs ([3]; Compound A 10 g ha): 0% | APESV Obs ([3]; Compound A 10 g/ha): 0% | LOLMG Obs ([4]; Compound A 5 g ha): 0% | LOLMG Obs ([4]; Compound A 5 g/ha): 0% | LOLMG Obs ([4]; Compound A 10 g ha): 0% | LOLMG Obs ([4]; Compound A 10 g/ha): 0% | TRZAW Obs ([5]; Compound A 5 g ai/ha): 7% | TRZAW Obs ([5]; Compound A 10 g ai/ha): 7% | PAPRH Obs (Papaver rhoeas (PAPRH); Compound A 5 g ai/ha): 46% | PAPRH Obs (Papaver rhoeas (PAPRH); Compound A 10 g ai/ha): 48% | SASKR Obs (Salsola tragus (SASKR); Compound A 2.5 g ha): 10% | SASKR Obs (Salsola tragus (SASKR); Compound A 5 g ai/ha): 75% | SASKR Obs (Salsola tragus (SASKR); Compound A 5 g ha): 60% | SASKR Obs (Salsola tragus (SASKR); Compound A 10 g ai/ha): 78% | VIOTR Obs (Viola tricolor (VIOTR); Compound A 2.5 g ha): 10% | VIOTR Obs (Viola tricolor (VIOTR); Compound A 5 g ai/ha): 27% | VIOTR Obs (Viola tricolor (VIOTR); Compound A 5 g ha): 10% | VIOTR Obs (Viola tricolor (VIOTR); Compound A 10 g ai/ha): 37% | LAMPU Obs (Lamium purpureum (LAMPU); Compound A 2.5 g ha): 80% | LAMPU Obs (Lamium purpureum (LAMPU); Compound A 5 g ha): 80% | LAMPU Obs (Lamium purpureum (LAMPU); Compound A 8.75 g/ha): 83% | SETVI Obs (Setaria viridis (SETVI); Compound A 5 g ha): 0% | SETVI Obs (Setaria viridis (SETVI); Compound A 10 g ha): 0% | KCHSC Obs (Kochia scoparia (KCHSC); Compound A 2.5 g ha): 20% | KCHSC Obs (Kochia scoparia (KCHSC); Compound A 5 g ai/ha): 60% | KCHSC Obs (Kochia scoparia (KCHSC); Compound A 5 g ha): 40% | KCHSC Obs (Kochia scoparia (KCHSC); Compound A 10 g ai/ha): 57% | TRZAS Obs ([6]; Compound A 2.5 g ha): 0% | TRZAS Obs ([6]; Compound A 5 g ha): 5% | HORVS Obs (Hordeum vulgare (HORVS); Compound A 2.5 g ha): 0% | HORVS Obs (Hordeum vulgare (HORVS); Compound A 5 g ha): 0% | GALAP Obs (Galium aparine (GALAP); Compound A 2.5 g ha): 60% | GALAP Obs (Galium aparine (GALAP); Compound A 5 g ha): 60% | CHEAL Obs ([7]; Compound A 2.5 g ha): 50% | CHEAL Obs ([7]; Compound A 5 g ha): 60%
